Results: patent US20180214563A1, “IMMUNOSTIMULATORY NANOCARRIER” (University of Pittsburgh - Of the Commonwealth System of …, priority 2015, published 2018)

Test system: 4T1.2 cells
Assay: In vitro cytotoxicity, MTT assay, 4T1.2
Type: cell-based, mouse
Settings: 72 h
Description: 4T1.2 , PC3, Panc02, and B16 cells at 2000 cells/well were seeded in 96-well plates, respectively. […] After 3 days of incubation, 20 μL of 3-(4,5-dimethylthiazol-2-yl)-2,5-diphenyltetrazoliumbromide (MTT) in DPBS (5 mg/mL) was added to each well and cells were further incubated for 2 h. Medium was removed and MTT formazan crystals were solubilized by 100 μL of DMSO per well. Absorbance of each well was measured with a microplate reader at wavelength of 550 nm. Untreated wells were used as controls. Cell viability was calculated as [(ODtreated-ODblank)/(ODcontrol-ODblank)×100%].

CC(=O)O[C@H]1C(=O)[C@@]2(C)[C@H]([C@H](OC(=O)c3ccccc3)[C@]3(O)C[C@H](OC(=O)[C@H](O)[C@@H](NC(=O)c4ccccc4)c4ccccc4)C(C)=C1C3(C)C)[C@]1(OC(C)=O)CO[C@@H]1C[C@@H]2O [PTX, paclitaxel]
cytotoxicity (tumor cell growth inhibition): inhibited the tumor cell growth in a concentration-dependent manner
